This note sets out measurements from patent US8703701B2 (Indiana University Research and Technology Corporation, priority 2009, dated 2014).

One test concerns the target T1, glucagon receptor (Homo sapiens, UniProt P47871).
T1 construct: expressed in transfected cells; host or cells: HEK293
The test is described as follows: cAMP induction, firefly luciferase reporter assay, glucagon receptor. The note with it: for EC50: Activity at Glucagon Receptor EC50 [pM]; for Activity at Glucagon Receptor % Relative Activity: compared to native glucagon. It counts as cell-based. On the procedure: (§1) The ability of each peptide to induce cAMP was measured in a firefly luciferase-based reporter assay.
(§2) At the end of the incubation, 100 μL of LucLite luminescence substrate reagent (Perkin Elmer, Wellesley, Mass.) were added to each well. The plate was shaken briefly, incubated 10 min in the dark and light output was measured on MicroBeta-1450 liquid scintillation counter (Perkin-Elmer, Wellesley, Mass.).
Background: In a reporter assay the amount or activity of a reporter protein is the signal.

The next test concerns the target T2, GLP-1 receptor (Homo sapiens, UniProt P43220).
T2 construct: expressed in transfected cells; host or cells: HEK293
The experiment in a line: cAMP induction, firefly luciferase reporter assay, GLP-1 receptor. As to conditions: for Activity at GLP-1 Receptor % Relative Activity: compared to native GLP-1. The format is cell-based. On the procedure:
as §1, §2

[1] abbreviates: Activity at GLP-1 Receptor EC50 [nM], Table 6.

Starred links: 1 amine or outer side, 2 acyl side, 3 side chain; linkers in the order of their positions; H or OH if unused. Non-standard residues stand in square brackets, D forms with d. Residues, ends and D or L forms follow the SMILES beside them. Groups on a side chain read outwards from the residue. No end group written: not given here. *: point of attachment. γGlu = O=C(O)[C@H](CCC(=O)[*:2])N[*:1]; Stearoyl = CCCCCCCCCCCCCCCCCC(=O)*; Palmitoyl = CCCCCCCCCCCCCCCC(=O)*; Aib = CC(C)(N)C(=O)O

T1 sequence (P47871 26-477): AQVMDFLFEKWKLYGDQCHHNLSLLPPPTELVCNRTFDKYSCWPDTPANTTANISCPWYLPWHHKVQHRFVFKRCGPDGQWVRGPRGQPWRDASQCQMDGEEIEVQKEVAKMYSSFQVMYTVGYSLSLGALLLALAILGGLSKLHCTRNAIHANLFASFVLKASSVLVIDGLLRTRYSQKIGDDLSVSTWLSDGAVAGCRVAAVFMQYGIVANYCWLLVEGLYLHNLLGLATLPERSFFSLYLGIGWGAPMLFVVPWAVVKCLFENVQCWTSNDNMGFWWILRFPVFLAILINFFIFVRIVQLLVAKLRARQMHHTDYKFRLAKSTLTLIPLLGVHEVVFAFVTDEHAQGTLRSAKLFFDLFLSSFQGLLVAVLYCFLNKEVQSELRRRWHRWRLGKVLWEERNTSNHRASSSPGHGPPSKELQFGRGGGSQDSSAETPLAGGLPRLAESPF
T2 sequence (P43220 24-463): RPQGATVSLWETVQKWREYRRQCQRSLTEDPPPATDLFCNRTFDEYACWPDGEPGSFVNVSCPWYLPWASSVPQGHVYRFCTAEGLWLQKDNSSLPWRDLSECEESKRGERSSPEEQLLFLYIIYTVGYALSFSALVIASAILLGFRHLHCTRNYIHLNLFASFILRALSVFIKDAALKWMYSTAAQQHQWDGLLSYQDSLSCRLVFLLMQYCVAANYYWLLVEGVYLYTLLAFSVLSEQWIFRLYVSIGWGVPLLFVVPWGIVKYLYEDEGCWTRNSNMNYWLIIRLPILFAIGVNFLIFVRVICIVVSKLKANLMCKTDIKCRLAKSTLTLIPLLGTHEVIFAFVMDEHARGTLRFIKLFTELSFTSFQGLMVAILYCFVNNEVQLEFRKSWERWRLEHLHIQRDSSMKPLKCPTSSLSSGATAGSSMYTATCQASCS

Usually EC50 stands for the concentration at which the effect is half-maximal. Lower therefore signals an effect from little substance. For `CCCCCCCCCCCCCCCC(=O)N[C@@H](CCC(=O)NCCCC[C@H](NC(=O)[C@H](CC(=O)O)NC(=O)[C@H](CO)NC(=O)[C@@H](NC(=O)[C@H](Cc1ccccc1)NC(=O)[C@@H](NC(=O)CNC(=O)[C@H](CCC(N)=O)NC(=O)C(C)(C)NC(=O)[C@@H](N)Cc1c[nH]cn1)[C@@H](C)O)[C@@H](C)O)C(=O)N[C@@H](CO)C(=O)N[C@@H](CCCCN)C(=O)N[C@@H](Cc1ccc(O)cc1)C(=O)N[C@@H](CC(C)C)C(=O)N[C@@H](CC(=O)O)C(=O)N[C@@H](CCC(=O)O)C(=O)N[C@@H](CCC(N)=O)C(=O)N[C@@H](C)C(=O)N[C@@H](C)C(=O)N[C@@H](CCCCN)C(=O)N[C@@H](CCC(=O)O)C(=O)N[C@@H](Cc1ccccc1)C(=O)N[C@H](C(=O)N[C@@H](C)C(=O)N[C@@H](Cc1c[nH]c2ccccc12)C(=O)N[C@@H](CC(C)C)C(=O)N[C@@H](CC(C)C)C(=O)N[C@@H](CC(=O)O)C(=O)N[C@H](C(N)=O)[C@@H](C)O)[C@@H](C)CC)C(=O)O` [compound 52], on glucagon receptor (Table 3A), the EC50 was 2.9 pM and the “Activity at Glucagon Receptor % Relative Activity” value amounted to 379%. For the same molecule, on GLP-1 receptor (Activity at GLP-1 Receptor EC50 [pM], Table 3A), the EC50 is 2.9 pM. Besides, the “Activity at GLP-1 Receptor % Relative Activity” value on GLP-1 receptor (Table 3A) is on record as 1276%.
Turning to `CCCCCCCCCCCCCCCC(=O)N[C@@H](CCC(=O)NCCCC[C@H](NC(=O)[C@H](CC(=O)O)NC(=O)[C@H](CO)NC(=O)[C@@H](NC(=O)[C@H](Cc1ccccc1)NC(=O)[C@@H](NC(=O)CNC(=O)[C@H](CCC(N)=O)NC(=O)[C@@H](C)NC(=O)[C@@H](N)Cc1c[nH]cn1)[C@@H](C)O)[C@@H](C)O)C(=O)N[C@@H](CO)C(=O)N[C@@H](CCCCN)C(=O)N[C@@H](Cc1ccc(O)cc1)C(=O)N[C@@H](CC(C)C)C(=O)N[C@@H](CC(=O)O)C(=O)N[C@@H](CCC(=O)O)C(=O)N[C@@H](CCCNC(=N)N)C(=O)N[C@@H](C)C(=O)N[C@@H](C)C(=O)N[C@@H](CCC(N)=O)C(=O)N[C@@H](CC(=O)O)C(=O)N[C@@H](Cc1ccccc1)C(=O)N[C@H](C(=O)N[C@@H](CS)C(=O)N[C@@H](Cc1c[nH]c2ccccc12)C(=O)N[C@@H](CC(C)C)C(=O)N[C@@H](CC(C)C)C(=O)N[C@@H](CC(=O)O)C(=O)N[C@H](C(N)=O)[C@@H](C)O)C(C)C)C(=O)O` [compound 59], the “Activity at Glucagon Receptor % Relative Activity” value at glucagon receptor (Table 6) was determined as 490%. Further, at GLP-1 receptor (setting [1]), the EC50 was determined as 19 pM. For the same molecule, the “Activity at GLP-1 Receptor % Relative Activity” value at GLP-1 receptor (Table 6) was 484%.
For `CCCCCCCCCCCCCCCCCC(=O)N[C@@H](CCC(=O)N[C@@H](CCC(=O)NCCCC[C@H](NC(=O)[C@H](CC(=O)O)NC(=O)[C@H](CO)NC(=O)[C@@H](NC(=O)[C@H](Cc1ccccc1)NC(=O)[C@@H](NC(=O)CNC(=O)[C@H](CCC(N)=O)NC(=O)C(C)(C)NC(=O)[C@@H](N)Cc1c[nH]cn1)[C@@H](C)O)[C@@H](C)O)C(=O)N[C@@H](CO)C(=O)N[C@@H](CCCCN)C(=O)N[C@@H](Cc1ccc(O)cc1)C(=O)N[C@@H](CC(C)C)C(=O)N[C@@H](CC(=O)O)C(=O)NC(C)(C)C(=O)N[C@@H](CCCNC(=N)N)C(=O)N[C@@H](C)C(=O)N[C@@H](C)C(=O)N[C@@H](CCC(N)=O)C(=O)N[C@@H](CC(=O)O)C(=O)N[C@@H](Cc1ccccc1)C(=O)N[C@H](C(=O)N[C@@H](CCC(N)=O)C(=O)N[C@@H](Cc1c[nH]c2ccccc12)C(=O)N[C@@H](CC(C)C)C(=O)N[C@@H](CCSC)C(=O)N[C@@H](CC(=O)O)C(=O)N[C@H](C(N)=O)[C@@H](C)O)C(C)C)C(=O)O)C(=O)O` [compound 71] (H-H[Aib]QGTFTSDK([γGlu-γGlu-Stearoyl])SKYLD[Aib]RAAQDFVQWLMDT-NH2; N-terminus assumed), on glucagon receptor (Table 3B), it took 4 pM to reach a half-maximal effect (EC50) and the “Activity at Glucagon Receptor % Relative Activity” value was found to be 975%. For the same molecule, on GLP-1 receptor (Table 3B), the “Activity at GLP-1 Receptor % Relative Activity” value came to 1222%.
As to “HSQGTFTSDYSKYLDERRAKEFVQWLMNT-NH2 [compound 68]”, the “Activity at Glucagon Receptor % Relative Activity” value on glucagon receptor (Table 2B) turned out to be 104%. For the same molecule, the “Activity at GLP-1 Receptor % Relative Activity” value at GLP-1 receptor (Table 2B) was 44%.
For `CCCCCCCCCCCCCCCC(=O)N[C@@H](CCC(=O)NCCCC[C@H](NC(=O)[C@H](CC(=O)O)NC(=O)[C@H](CO)NC(=O)[C@@H](NC(=O)[C@H](Cc1ccccc1)NC(=O)[C@@H](NC(=O)CNC(=O)[C@H](CCC(N)=O)NC(=O)C(C)(C)NC(=O)[C@@H](N)Cc1c[nH]cn1)[C@@H](C)O)[C@@H](C)O)C(=O)N[C@@H](CO)C(=O)N[C@@H](CCCCN)C(=O)N[C@@H](Cc1ccc(O)cc1)C(=O)N[C@@H](CC(C)C)C(=O)N[C@@H](CC(=O)O)C(=O)NC(C)(C)C(=O)N[C@@H](CCCNC(=N)N)C(=O)N[C@@H](C)C(=O)N[C@@H](C)C(=O)N[C@@H](CCC(N)=O)C(=O)N[C@@H](CC(=O)O)C(=O)N[C@@H](Cc1ccccc1)C(=O)N[C@H](C(=O)N[C@@H](CCC(N)=O)C(=O)N[C@@H](Cc1c[nH]c2ccccc12)C(=O)N[C@@H](CC(C)C)C(=O)N[C@@H](CCSC)C(=O)N[C@@H](CC(=O)O)C(=O)N[C@H](C(N)=O)[C@@H](C)O)C(C)C)C(=O)O` [compound 43] (H-H[Aib]QGTFTSDK([γGlu-Palmitoyl])SKYLD[Aib]RAAQDFVQWLMDT-NH2; N-terminus assumed), the “Activity at Glucagon Receptor % Relative Activity” value on glucagon receptor (Table 3A) is 467%. Further, at GLP-1 receptor (Table 3A), the “Activity at GLP-1 Receptor % Relative Activity” value amounted to 575%.
Consider `CSCC[C@H](NC(=O)[C@H](CC(C)C)NC(=O)[C@H](Cc1c[nH]c2ccccc12)NC(=O)[C@H](CCC(N)=O)NC(=O)[C@@H](NC(=O)[C@H](Cc1ccccc1)NC(=O)[C@H](CCC(=O)O)NC(=O)[C@H](CCCCN)NC(=O)[C@H](C)NC(=O)[C@H](CCCNC(=N)N)NC(=O)[C@H](CCCCN)NC(=O)[C@H](CCC(=O)O)NC(=O)[C@H](CC(=O)O)NC(=O)[C@H](CC(C)C)NC(=O)[C@H](Cc1ccc(O)cc1)NC(=O)[C@H](CCCCN)NC(=O)[C@H](CO)NC(=O)[C@H](Cc1ccc(O)cc1)NC(=O)[C@H](CC(=O)O)NC(=O)[C@H](CO)NC(=O)[C@@H](NC(=O)[C@H](Cc1ccccc1)NC(=O)[C@@H](NC(=O)CNC(=O)[C@H](CCC(N)=O)NC(=O)[C@H](CO)NC(=O)[C@@H](N)Cc1c[nH]cn1)[C@@H](C)O)[C@@H](C)O)C(C)C)C(=O)N[C@@H](CC(N)=O)C(=O)N[C@H](C(N)=O)[C@@H](C)O` [compound 65], for which, on glucagon receptor (Table 2B), the “Activity at Glucagon Receptor % Relative Activity” value worked out at 264%. Besides, the “Activity at GLP-1 Receptor % Relative Activity” value at GLP-1 receptor (Table 2B) is 64%.
For the molecule `CCCCCCCCCCCCCCCC(=O)N[C@@H](CCC(=O)NCCCC[C@H](NC(=O)[C@H](CC(=O)O)NC(=O)[C@H](CO)NC(=O)[C@@H](NC(=O)[C@H](Cc1ccccc1)NC(=O)[C@@H](NC(=O)CNC(=O)[C@H](CCC(N)=O)NC(=O)C(C)(C)NC(=O)[C@@H](N)Cc1c[nH]cn1)[C@@H](C)O)[C@@H](C)O)C(=O)N[C@@H](CO)C(=O)N[C@@H](CCCCN)C(=O)N[C@@H](Cc1ccc(O)cc1)C(=O)N[C@@H](CC(C)C)C(=O)N[C@@H](CC(=O)O)C(=O)N[C@@H](CCC(=O)O)C(=O)N[C@@H](CCCNC(=N)N)C(=O)N[C@@H](C)C(=O)N[C@@H](C)C(=O)N[C@@H](CCC(N)=O)C(=O)N[C@@H](CC(=O)O)C(=O)N[C@@H](Cc1ccccc1)C(=O)N[C@H](C(=O)N[C@@H](CS)C(=O)N[C@@H](Cc1c[nH]c2ccccc12)C(=O)N[C@@H](CC(C)C)C(=O)N[C@@H](CC(C)C)C(=O)N[C@@H](CC(=O)O)C(=O)N[C@H](C(N)=O)[C@@H](C)O)C(C)C)C(=O)O` [compound 58], the “Activity at Glucagon Receptor % Relative Activity” value on glucagon receptor (Table 6) turned out to be 80%. Also, on GLP-1 receptor (setting [1]), the EC50 is 68 pM. The “Activity at GLP-1 Receptor % Relative Activity” value at GLP-1 receptor (Table 6) stood at 125%.
